Assay: Anticancer human tumor 997537-175-T-J1-PDC patient-derived colon adenocarcinoma cell line growth inhibition [POLQ]
Conditions: 997537-175-T-J1-PDC complex spheroid viability, combination with POLQ inhibitors; for IC50: curve of first compound; for viability, T/C: stronger effect = lower value
Procedure, shortened: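 Complex spheroid viability model combining PDC tumour cells with endothelial (HUVEC) and MSC stromal cells. Novobiocin, ART-558 or RP6685 were tested singly and in combination with standard and investigational anticancer drugs. Each was titrated in half-log steps from near clinical Cmax, or from 10 microM where Cmax was unknown.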

[1] = second compound 0.0316 µM, first compound 0.0316 µM
[2] = second compound 0.0316 µM, first compound 0.1 µM
[3] = second compound 0.0316 µM, first compound 0.316 µM
[4] = second compound 0.0316 µM, first compound 1 µM
[5] = second compound 0.1 µM, first compound 0.0316 µM
[6] = second compound 0.1 µM, first compound 0.1 µM
[7] = second compound 0.1 µM, first compound 0.316 µM
[8] = second compound 0.1 µM, first compound 1 µM
[9] = second compound 0.316 µM, first compound 0.0316 µM
[10] = second compound 0.316 µM, first compound 0.1 µM
[11] = second compound 0.316 µM, first compound 0.316 µM
[12] = second compound 0.316 µM, first compound 1 µM
[13] = second compound 1 µM, first compound 0.0316 µM
[14] = second compound 1 µM, first compound 0.1 µM
[15] = second compound 1 µM, first compound 0.316 µM
[16] = second compound 1 µM, first compound 1 µM
[17] = second compound 3.16 µM, first compound 0.0316 µM
[18] = second compound 3.16 µM, first compound 0.1 µM
[19] = second compound 3.16 µM, first compound 0.316 µM
[20] = second compound 3.16 µM, first compound 1 µM
[21] = second compound 10 µM, first compound 0.0316 µM
[22] = second compound 10 µM, first compound 0.1 µM
[23] = second compound 10 µM, first compound 0.316 µM
[24] = second compound 10 µM, first compound 1 µM
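Further: luminescence signal used as a surrogate for viable cells; spheroids exposed to drugs for seven days before readout.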

COc1cccc(OCCCN)c1-c1cc(Nc2cnc(C#N)cn2)n[nH]1 + Cc1cccc(N(C)C(=O)C2C(O)CCN2c2nc(C)cc(C(F)(F)F)c2C#N)c1
IC50 (second compound 0.0316 µM): 131 nM | IC50 (second compound 0.1 µM): 139 nM | IC50 (second compound 0.316 µM): 125 nM | IC50 (second compound 1 µM): 39 nM | IC50 (second compound 3.16 µM): 23.7 nM | IC50 (second compound 10 µM): 135 nM | viability, T/C (second compound 0.0316 µM, first compound 0.00316 µM): 92.7% | viability, T/C (second compound 0.0316 µM, first compound 0.01 µM): 97.7% | viability, T/C [1]: 79% | viability, T/C [2]: 60.8% | viability, T/C [3]: 22.5% | viability, T/C [4]: 27.9% | viability, T/C (second compound 0.1 µM, first compound 0.00316 µM): 111% | viability, T/C (second compound 0.1 µM, first compound 0.01 µM): 107% | viability, T/C [5]: 50.1% | viability, T/C [6]: 73% | viability, T/C [7]: 32.8% | viability, T/C [8]: 31.2% | viability, T/C (second compound 0.316 µM, first compound 0.00316 µM): 100% | viability, T/C (second compound 0.316 µM, first compound 0.01 µM): 79.8% | viability, T/C [9]: 70.1% | viability, T/C [10]: 45.3% | viability, T/C [11]: 48.2% | viability, T/C [12]: 20% | viability, T/C (second compound 1 µM, first compound 0.00316 µM): 101% | viability, T/C (second compound 1 µM, first compound 0.01 µM): 79.1% | viability, T/C [13]: 59.6% | viability, T/C [14]: 25.9% | viability, T/C [15]: 29.5% | viability, T/C [16]: 27.4% | viability, T/C (second compound 3.16 µM, first compound 0.00316 µM): 86.6% | viability, T/C (second compound 3.16 µM, first compound 0.01 µM): 85.4% | viability, T/C [17]: 38% | viability, T/C [18]: 20.6% | viability, T/C [19]: 18.4% | viability, T/C [20]: 36% | viability, T/C (second compound 10 µM, first compound 0.00316 µM): 86.8% | viability, T/C (second compound 10 µM, first compound 0.01 µM): 73.6% | viability, T/C [21]: 62.9% | viability, T/C [22]: 45.8% | viability, T/C [23]: 53.1% | viability, T/C [24]: 30.1%

Nc1ccn(C2OC(CO)C(O)C2(F)F)c(=O)n1 (centres undefined) + Nc1ccc(C#CCN(C(=O)Cc2ncc(C(F)(F)F)cc2C(F)(F)F)c2ccc(F)cc2)nn1
IC50 (second compound 0.0316 µM): > 10000 nM | IC50 (second compound 0.1 µM): > 10000 nM | IC50 (second compound 0.316 µM): > 10000 nM | IC50 (second compound 1 µM): > 10000 nM | IC50 (second compound 3.16 µM): > 10000 nM | IC50 (second compound 10 µM): > 10000 nM | viability, T/C [1]: 92.5% | viability, T/C [2]: 100% | viability, T/C [3]: 87.8% | viability, T/C [4]: 89.5% | viability, T/C (second compound 0.0316 µM, first compound 3.16 µM): 80.7% | viability, T/C (second compound 0.0316 µM, first compound 10 µM): 72.5% | viability, T/C [5]: 109% | viability, T/C [6]: 108% | viability, T/C [7]: 101% | viability, T/C [8]: 68.2% | viability, T/C (second compound 0.1 µM, first compound 3.16 µM): 67.9% | viability, T/C (second compound 0.1 µM, first compound 10 µM): 47.3% | viability, T/C [9]: 97.9% | viability, T/C [10]: 102% | viability, T/C [11]: 81.8% | viability, T/C [12]: 92.9% | viability, T/C (second compound 0.316 µM, first compound 3.16 µM): 92% | viability, T/C (second compound 0.316 µM, first compound 10 µM): 66.2% | viability, T/C [13]: 102% | viability, T/C [14]: 99.6% | viability, T/C [15]: 84% | viability, T/C [16]: 74.4% | viability, T/C (second compound 1 µM, first compound 3.16 µM): 88.7% | viability, T/C (second compound 1 µM, first compound 10 µM): 77.5% | viability, T/C [17]: 100% | viability, T/C [18]: 105% | viability, T/C [19]: 84.7% | viability, T/C [20]: 83.8% | viability, T/C (second compound 3.16 µM, first compound 3.16 µM): 70.8% | viability, T/C (second compound 3.16 µM, first compound 10 µM): 84.5% | viability, T/C [21]: 102% | viability, T/C [22]: 113% | viability, T/C [23]: 89% | viability, T/C [24]: 94.1% | viability, T/C (second compound 10 µM, first compound 3.16 µM): 89.7% | viability, T/C (second compound 10 µM, first compound 10 µM): 74.2%
